For one assay, the target named is T1, CRAF (Homo sapiens, UniProt P04049).
T1 construct: fused on or other part: GST tag (N-terminal according to the vendor's product)
Kind of assay: CRAF kinase activity assay (ADP-Glo). Format: biochemical. Particulars: Table 3; 10 μM ATP, kinase-dead MEK1 substrate. As for the experimental part: (§1) Compound preparation: solid samples of each substance in 1dram vials were suspended in DMSO (Fisher Scientific) at a stock concentration of 20 mM. Stocks were kept at −20° C. and protected from light. If solubility of the compound at 20 mM appeared to be an issue, the initial concentration of the DMSO stock was changed to 10 mM or 5 mM.
(§2) In vitro enzymatic reactions were used for evaluating compounds intrinsic activity against BRAF, CRAF and ARAF. For BRAF and CRAF, 0.375 nM of purified GST-tagged kinases (cat. No. B4062-10UG and cat. No. R1656-10UG respectively from Millipore Sigma) were incubated with 75 nM of kinase-dead MEK1 substrate (cat. No. 40075; BPS Bioscience) in the presence of 10 μM of Ultrapure ATP (cat. No. V9102; Promega; part V915A) with and without the test compound in a buffer containing 50 mM HEPES pH 7.5, 10 mM MgCl2, 1 mM EDTA, 0.01% Brij-35 and 2 mM DTT. Separate reactions were performed with the MEK1 substrate and ATP as a blank control. ARAF kinase reactions were rigorously the same with the exception that kinase concentration was raised to 3.75 nM (cat. No. 1768-0000-1; Reaction Biology).
(§3) For compound treatment, 5 μL/well of test substance solution are placed in a 384-well proxyplate (Perkin Elmer) and mixed with 2× concentrated kinase reactions. The dilution series is selected so that nine concentrations cover a range from 100 nM to 0.01 nM. […] The final concentration of DMSO in the assay is set at 0.05%.
(§4) BRAF and CRAF kinase reactions were carried out for a total of 2 hours at 30° C. and then stopped by 1/2 dilution in ADP-Glo Reagent (cat. No. V9102; Promega; part V912C). Reactions were then incubated for 1 h at room temperature before addition of one volume of Kinase Detection Reagent (cat. No. V9102; Promega; part V917A). Plates were then equilibrated at room temperature for 30 minutes before detection of luminescence on a Synergy Neo2 plate reader (Biotek). The effect of each compound dilution on BRAF and CRAF kinase activity was expressed as % inhibition and calculated as follows. First, the internal 100% inhibition control (average of luminescence in kinase reactions comprising kinase dead MEK1 substrate alone) was subtracted from each data point. The average of DMSO (vehicle) controls (set as 0% inhibition) was established and used to calculate % inhibition:
(§5) IC50 values were obtained by plotting the kinase inhibition values and fitting the dose-activity curves using a log(agonist) versus response—variable slope (four parameters) function using either GraphPadPrism (V7.0) or Dotmatics Screening Ultra platform. Standards included in the ARAF kinase assay were Belvarafenib (MedChem Express cat. No. HY-109080; CAS No. 1446113-23-0), LXH254 (MedChem Express cat. No. HY-112089; CAS No. 1800398-38-2) and BGB283 (cat. No. HY-18957; CAS No. 1446090-79-4).

The subject of another assay is pERK, HCT116 cells. Briefly: Phospho-ERK inhibition, AlphaLISA p-ERK 1/2, HCT-116. The format is cell-based, human. Particulars: Table 3; for IC50: HCT116 cells (KRAS G13D), 1 h treatment; for HCT116 pERK (Ymin %): lowest % inhibition value of the pERK IC50 curve, above −20% = no paradoxical induction. How it is done:
All cancer cell lines (A375, A101D, A2058, RKO, HT29 SK-MEL 30, IPC298, HepG2, HCT-116, Lovo, SW620, SW480, NCI-H358, NCI-H2122, Calu-6, NCIH2087, NCIH1755, NCIH1666 and Mewo) were obtained from ATCC and cultured in RPM1-1640 medium (Gibco) supplemented with 5% heat inactivated fetal bovine serum (FBS, Wisent) at 37° C. under 5% CO2. Cells were maintained in T175 flasks (Greiner). They were passaged by removing the culture medium, washing once in 10 mL of room temperature Phosphate Buffered Saline (PBS; Wisent) and incubating at 37° C. with 2 mL of 0.05% Trypsin (Thermo-Fisher). Trypsin was then inactivated by adding complete growth medium and the cells were then replated in a T175 culture dish at the appropriate dilution. All cell lines were routinely tested for mycoplasma contamination. Tissue type and mutational status of each cell line can be found in Table B.
(c) Measurement of Phospho-ERK Inhibition in Cultivated Human Cancer Cell Lines by the AlphaLISA® SureFire® Ultra™ p-ERK 1/2 (Thr2O2/Tyr204)
AlphaLISA® SureFire® Ultra™ p-ERK 1/2 (Thr202/Tyr204) analysis was conducted on cells plated in 100 μL of complete RPMI-1640 growth medium in 96-well flat-bottomed transparent dishes (Costar) at a density indicated in Table C. Cells were maintained overnight at 37° C. under 5% CO2 before treatment with compounds' dilution series for one hour. The cell density in cells/cm^2 corresponds to cell number divided by the area of one well of a 96-well plate (0.143 cm^2).
In a dilution series 100 μL/well of test substance dilution prepared in complete RPMI-1640 growth media was added to the cells. The dilution series is selected so that ten concentrations cover a range from 10 μM to 0.33 nM. If necessary, the initial concentration of 10 μM is increased to 100 μM or lowered to 1 μM (as in the case of A375 and H1666 cells, which are generally more sensitive to the compounds) and further dilution is carried out accordingly. The final concentration of DMSO in the assay is set at 0.5%.
After treatment, media was removed, and cells were lysed in 50 μL of 1× AlphaScreen Ultra Lysis Buffer (Perkin Elmer). The AlphaLISA® SureFire® Ultra™ p-ERK 1/2 (Thr202/Tyr204) (PerkinElmer) reactions were performed with 5 μL of cell lysate according to the manufacturer's specifications in 384-well proxyplates (Perkin Elmer) followed by overnight incubation of the reactions at room temperature in a humidified chamber. After completion of the reactions, the signals were recorded on an EnVision plate reader (Perkin Elmer) using built in AlphaLISA® settings.
The effect of each compound dilution on the pERK signal was expressed in % inhibition and calculated as follows. An internal 100% inhibition control (1 μM trametinib, cat. No. HY-10999; MedChem Express; CAS No. 871700-17-3) was included in each plate and used as a measure of pERK background. First, the value obtained for trametinib was subtracted from each data point. The average of DMSO (vehicle) controls (set as 0% inhibition) was established and used to calculate % inhibition:
The ability of each compound to inhibit pERK signal was expressed as an IC50 value obtained by plotting the inhibition values for each data point of a dilution series and fitting the obtained curves using a log(agonist) versus response—variable slope (four parameters) function using GraphPadPrism (V7.0) or Dotmatics Screening Ultra platform.
When present, paradoxical pERK induction is inferred from the negative % inhibition values observed in the pERK IC50 curves of a compound.
For orientation: Alpha assays give light when donor and acceptor beads are brought close together.

The next assay has as its target T2, BRAF (Homo sapiens, UniProt P15056).
T2 construct: GST; purchased Millipore Sigma B4062-10UG
Briefly: BRAF kinase activity assay (ADP-Glo). Format: biochemical. The following applies: Table 3; 10 μM ATP, kinase-dead MEK1 substrate. As for the experimental part:
as §1, §2, §3, §4, §5
(In general: In ADP-Glo the light output rises with the ADP produced.)

T2 sequence (P15056 whole entry): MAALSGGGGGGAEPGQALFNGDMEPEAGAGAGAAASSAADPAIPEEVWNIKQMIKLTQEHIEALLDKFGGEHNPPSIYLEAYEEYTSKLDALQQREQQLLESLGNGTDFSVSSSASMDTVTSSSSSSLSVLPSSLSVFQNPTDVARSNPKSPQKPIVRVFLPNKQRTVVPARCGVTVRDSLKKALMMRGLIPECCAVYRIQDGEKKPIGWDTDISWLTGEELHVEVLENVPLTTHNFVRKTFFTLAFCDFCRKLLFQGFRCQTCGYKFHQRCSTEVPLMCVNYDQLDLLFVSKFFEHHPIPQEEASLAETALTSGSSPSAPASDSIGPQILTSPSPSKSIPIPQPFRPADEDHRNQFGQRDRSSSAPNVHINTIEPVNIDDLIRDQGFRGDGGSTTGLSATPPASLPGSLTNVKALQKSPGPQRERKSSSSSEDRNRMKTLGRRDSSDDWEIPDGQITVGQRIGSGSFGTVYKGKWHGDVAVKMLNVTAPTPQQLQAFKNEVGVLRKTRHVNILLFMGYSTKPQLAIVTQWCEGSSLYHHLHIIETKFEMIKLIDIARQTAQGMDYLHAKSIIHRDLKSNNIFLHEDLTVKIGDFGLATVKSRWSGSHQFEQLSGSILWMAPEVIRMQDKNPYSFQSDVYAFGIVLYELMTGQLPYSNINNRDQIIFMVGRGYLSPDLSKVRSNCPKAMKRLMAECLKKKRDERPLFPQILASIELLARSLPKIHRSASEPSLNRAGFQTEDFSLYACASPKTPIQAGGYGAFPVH
T1 sequence (P04049 whole entry Y340E/Y341E, form open, the tested form may be a part): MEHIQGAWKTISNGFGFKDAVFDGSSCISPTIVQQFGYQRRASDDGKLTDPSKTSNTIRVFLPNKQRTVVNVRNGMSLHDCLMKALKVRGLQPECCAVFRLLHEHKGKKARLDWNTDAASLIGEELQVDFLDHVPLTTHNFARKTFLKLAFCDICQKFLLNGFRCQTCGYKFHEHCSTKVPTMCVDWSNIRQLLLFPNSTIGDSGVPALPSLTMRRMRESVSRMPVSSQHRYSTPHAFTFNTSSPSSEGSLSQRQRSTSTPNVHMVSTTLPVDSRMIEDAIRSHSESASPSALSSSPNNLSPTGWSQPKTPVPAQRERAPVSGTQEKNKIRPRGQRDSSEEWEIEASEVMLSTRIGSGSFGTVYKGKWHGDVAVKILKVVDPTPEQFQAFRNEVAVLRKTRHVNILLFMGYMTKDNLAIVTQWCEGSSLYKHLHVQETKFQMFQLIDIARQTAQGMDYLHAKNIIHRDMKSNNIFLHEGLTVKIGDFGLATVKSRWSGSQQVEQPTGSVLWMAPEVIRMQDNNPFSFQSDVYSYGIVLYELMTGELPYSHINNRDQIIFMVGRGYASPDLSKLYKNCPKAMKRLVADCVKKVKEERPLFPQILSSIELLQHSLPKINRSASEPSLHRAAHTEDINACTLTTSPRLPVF

For orientation: IC50 means the point on the concentration scale where inhibition reaches its midpoint. In the case of `O=S(=O)(Nc1ccc(F)c(Nc2ncnc3sc(-n4cnc5cc(F)c(F)cc54)nc23)c1F)c1cccc(Cl)c1Cl` [Example 19], the 50% inhibitory concentration (IC50) at CRAF was less than 10 nM; in the assay with pERK, HCT116 cells, 500 to 1000 nM; at BRAF, 1 to 10 nM. For the same compound, in the assay on pERK, HCT116 cells, the “HCT116 pERK (Ymin %)” value is recorded as −14%.

As for `Cc1cc2ncn(-c3nc4c(Nc5c(F)ccc(NS(=O)(=O)c6cccc(Cl)c6Cl)c5F)ncnc4s3)c2cc1C` [Example 20], the IC50 at CRAF is 10 to 50 nM; in the assay on pERK, HCT116 cells, less than 500 nM; on BRAF, 1 to 10 nM. Moreover, in the assay with pERK, HCT116 cells, the “HCT116 pERK (Ymin %)” value is given as −12%.

As for `O=S(=O)(Nc1ccc(F)c(Nc2ncnc3sc(-n4nnc5ccccc54)nc23)c1F)c1cccc(Cl)c1Cl` [Example 21], the IC50 on CRAF is 10 to 50 nM; in the assay with pERK, HCT116 cells, 1000 to 10000 nM; on BRAF, greater than 10 nM. In addition, the “HCT116 pERK (Ymin %)” value in the assay with pERK, HCT116 cells is −4%.

Take `Cc1c(F)cccc1S(=O)(=O)Nc1ccc(F)c(Nc2ncnc3sc(-n4nnc5ccccc54)nc23)c1F` [Example 22]: the IC50 on CRAF was greater than 50 nM; in the assay on pERK, HCT116 cells it was 1000 to 10000 nM; on BRAF, greater than 10 nM. Further, in the assay on pERK, HCT116 cells, the “HCT116 pERK (Ymin %)” value is listed as −8%.

`Cc1c(F)cccc1S(=O)(=O)Nc1ccc(F)c(Nc2ncnc3sc(-n4nc(C(=O)N(C)Cc5cccnc5)c5ccccc54)nc23)c1F` [Example 23]: the IC50 on CRAF is greater than 50 nM; in the assay on pERK, HCT116 cells (Homo sapiens, HCT-116), 1000 to 10000 nM; at BRAF, greater than 10 nM.

Take `Cc1c(F)cccc1S(=O)(=O)Nc1ccc(F)c(Nc2ncnc3sc(-n4nc(C(=O)NCc5cccnc5)c5ccccc54)nc23)c1F` [Example 24]: the IC50 is 10 to 50 nM at CRAF; 500 to 1000 nM in the assay on pERK, HCT116 cells; greater than 10 nM on BRAF. The “HCT116 pERK (Ymin %)” value in the assay with pERK, HCT116 cells is listed as 2%.

Turning to `Cc1c(F)cccc1S(=O)(=O)Nc1ccc(F)c(Nc2ncnc3sc(-n4nc(C(=O)N(C)CCc5ccccn5)c5ccccc54)nc23)c1F` [Example 25], the half-maximal inhibitory concentration (IC50) was greater than 50 nM at CRAF; 1000 to 10000 nM with pERK, HCT116 cells; greater than 10 nM at BRAF. Moreover, the “HCT116 pERK (Ymin %)” value with pERK, HCT116 cells is given as 2%.

In the case of `COCCN(C)C(=O)c1nn(-c2nc3c(Nc4c(F)ccc(NS(=O)(=O)c5cccc(F)c5C)c4F)ncnc3s2)c2ccccc12` [Example 26], the IC50 is greater than 50 nM on CRAF; 1000 to 10000 nM in the assay with pERK, HCT116 cells; greater than 10 nM on BRAF. Further, the “HCT116 pERK (Ymin %)” value in the assay on pERK, HCT116 cells was −13%.

As to `Cc1c(F)cccc1S(=O)(=O)Nc1ccc(F)c(Nc2ncnc3sc(-n4nc(C(=O)N(C)CCN(C)C)c5ccccc54)nc23)c1F` [Example 27], the IC50 on CRAF was 10 to 50 nM; with pERK, HCT116 cells, 500 to 1000 nM; at BRAF, 1 to 10 nM. Moreover, the “HCT116 pERK (Ymin %)” value in the assay on pERK, HCT116 cells is −3%.

Consider `Cc1c(F)cccc1S(=O)(=O)Nc1ccc(F)c(Nc2ncnc3sc(-n4cc(C(=O)N(C)CCc5ccccn5)c5ccccc54)nc23)c1F` [Example 28], for which the half-inhibitory concentration (IC50) on CRAF is 10 to 50 nM; with pERK, HCT116 cells (Homo sapiens, HCT-116), less than 500 nM; at BRAF, 1 to 10 nM.

For the compound `Cc1c(F)cccc1S(=O)(=O)Nc1ccc(F)c(Nc2ncnc3sc(-n4cc(C(=O)NCc5cccnc5)c5ccccc54)nc23)c1F` [Example 29], the IC50 at CRAF was greater than 50 nM; in the assay on pERK, HCT116 cells, 500 to 1000 nM; at BRAF, greater than 10 nM. Moreover, the “HCT116 pERK (Ymin %)” value in the assay on pERK, HCT116 cells came to 5%.

On to `Cc1c(F)cccc1S(=O)(=O)Nc1ccc(F)c(Nc2ncnc3sc(-n4cc(C(=O)N(C)Cc5ccncc5)c5ccccc54)nc23)c1F` [Example 30], for which the half-maximal inhibitory concentration (IC50) at CRAF is 10 to 50 nM; with pERK, HCT116 cells, less than 500 nM; at BRAF it was 1 to 10 nM. Further, the “HCT116 pERK (Ymin %)” value in the assay with pERK, HCT116 cells is −3%.

In the case of `Cc1c(F)cccc1S(=O)(=O)Nc1ccc(F)c(Nc2ncnc3sc(-n4cc(C(=O)N(C)Cc5cccnc5)c5ccccc54)nc23)c1F` [Example 31], the IC50 on CRAF was less than 10 nM; in the assay with pERK, HCT116 cells it was 500 to 1000 nM; on BRAF, 1 to 10 nM. The “HCT116 pERK (Ymin %)” value in the assay on pERK, HCT116 cells is reported as 7%.

For `Cc1c(F)cccc1S(=O)(=O)Nc1ccc(F)c(Nc2ncnc3sc(-n4nc(C(=O)N5CCC(CO)C5)c5ccccc54)nc23)c1F` (stereo not drawn) [Example 32], the IC50 at CRAF lay in the range of 10 to 50 nM; in the assay with pERK, HCT116 cells it was 1000 to 10000 nM; on BRAF, 1 to 10 nM. In addition, in the assay on pERK, HCT116 cells, the “HCT116 pERK (Ymin %)” value is given as −13%.

The record behind these values is patent publication US20260137697A1, “THIAZOLO[5,4-D]PYRIMIDINE COMPOUNDS, COMPOSITIONS COMPRISING THEM AND USES THEREOF” (University de Montreal, priority 2022, published 2026).
